Reference: US6663859B2, “Compositions for enhancing the immune response” (Bioenergy, Inc., priority 2000, dated 2003)

Legend:
[1] = system: HL-60 cells; experiment: Viability of HL-60 cells (trypan dye exclusion); type: cell-based, human; conditions: summary of Table 1
Excerpt: (§1) For the in vitro studies, HL-60 cells (American Type Culture Collection, Manassas, Va.), an immortal human lymphocyte cell line, at approximately passage twenty were maintained between 2.0×10^5 cells/ml in RPMI 1640 medium containing HEPES buffer (Cellgro, Mediatech Inc., Herdon, Va.), 2 mmol/L L-glutamine (Cellgro), 1% antimycotic (Cellgro), 10% heat treated fetal bovine serum (FBS: GibcoBRL; Life Technologies, Baltimore, Md.), and 0.1% gentamicin (GibcoBRL).
(§2) Experimental flasks were initiated at a concentration of 2.5×10^5 cells/ml. Differentiation of HL-60 cells was induced using all-trans retinoic acid (RA) prepared in 95% ethanol. RA was added to flasks at a concentration of 1.0 μmol/L such that the ethanol concentration added to the flask was less than 0.1%. D-Ribose preparations were made by dissolving powdered ribose (Bioenergy, Minneapolis, Minn.) in RPMI medium followed by sterile filtration.
(§3) The specificity of ribose, time and dose response was examined. The doses of ribose were 1, 5, 10, 25 and 50 mmol/L. In experiments in which one concentration of ribose was used, 10 mmol/L was the dose chosen. The effect of timing of the dose was explored by adding ribose at various times after the addition of the retinoic acid. Specificity was examined by substituting glucose, to eliminate the nonspecific effects of ribose as a substrate for glycolysis or gluconeogenesis, or change in osmolarity.
(§4) Following ninety-six hours of incubated (or as specified), cells were harvested, counted by hemocytometer and viability assessed using trypan dye exclusion. For growth and viability determinations, cells were counted three times within one experiment. Results shown were from at least three experiments. Cells were washed twice with phosphate buffered salt solution (PBS) and brought to a concentration of 2.0×10^7 cells/ml PBS.

[2] = Viability of HL-60 cells (trypan dye exclusion); type: cell-based, human; conditions: human, HL-60 cells; for viability at 96 h: Table 1, 96 h incubation, RA 1.0 μmol/L, ribose 10 mmol/L
Excerpt: as §1, §2, §3, §4

[3] = system: HL-60 cells; experiment: ATP determination in HL-60 cells; type: cell-based, human; conditions: HL-60 control about five μmoles per 10^9 cells
Protocol: Determination of ATP was performed using a kit purchased from Sigma Diagnostics (St. Louis, Mo.) with slight modifications. 1.0 ml of 12% trichloroacetic acid (TCA) and 1.0 ml of prepared cell suspension (1×10^7 cells/ml) were combined, vortexed and placed on ice for five minutes. Tubes were then centrifuged (Jouann, at 2000×g for 8 minutes) to obtain a clear supernatant. The following reagents were then added into vials containing 0.3 mg NADH: 1.0 ml phosphoglyceraldehyde buffered solution, 1.5 ml water, and 0.15 ml cell supernatant. Samples were distributed into two tubes. One tube was used to obtain an initial spectrophotometric absorbance at 340 nm. Fifteen μl of GAPD/PGK enzyme mixture were added to the second tube and read after ten minutes. Changes in absorbance were calculated and results were expressed as μmol of ATP per 1×10^9 cells.

[4] = system: HL-60 cells; experiment: Cell surface markers of maturity (CD11b, CD117) on HL-60 cells; type: cell-based, human; conditions: for expression of cell surface marker reactive with CD11b antibody: FIG. 1
Protocol: Cell samples for the detection of cell surface molecules were prepared for flow cytometry in 12×17 mm capped conical tubes. To each tube, 30 μl of PBS containing 2% FBS was added. To each of triplicate tubes, a phycoerythrin (PE) labeled antibody (PharMingen, San Diego, Calif.) was added: 20 μl of CD1 lb, 20 μl of CD117, or 20 μl of isotype control (Mouse IgG1,κ). Fifty microliters of prepared cell suspension were added to each tube, followed by gentle mixing. Tubes were placed on ice for forty-five minutes after which 2 ml of cold PBS containing 2% FBS were added to each tube. Tubes were centrifuged (Jouann, at 300×g for 10 minutes) at approximately 5° C. and supernatant removed. One ml of cold 0.5% paraformaldehyde solution was added to the pellet and tubes were vortexed immediately. Prior to analysis, fixed cells were stored in the dark at approximately 4° C. for a period no longer than one week. Samples were analyzed on FACScan. Data were analyzed using WinMDI Software (Scripps Institute, build 1301-19-200, San Diego, Calif.).
Differentiation is accompanied by changes in the surface markers CD117 and CD11b. CD117 is a tyrosine kinase receptor that is expressed in high quantities on undifferentiated cells, while CD11b is a cell adhesion molecule expressed in high quantities on differentiated cells. After harvest, aliquots of the ribose and glucose control cells were allowed to differentiate with retinoic acid as above. An ELISA assay was set up with antibodies against CD117 or CD11b.

[5] = system: various cell cultures; conditions: 12.5 to 50 mM; Marini et al 1985; cited from earlier work
[6] = system: HL-60 cells; experiment: Cellular proliferation of HL-60 cells (hemocytometer count); type: cell-based, human; conditions: for reduction in cell growth compared to control HL-60 cells: 96-hour incubation; for Cell Growth (10^5 cells/ml): Table 1, 96 h incubation, initial 2.5×10^5 cells/ml, RA 1.0 μmol/L, ribose 10 mmol/L; for change in cell number over the 96-hour incubation period: initial cell density 2.5×10^5
Excerpt: as §1, §2, §3, §4

[7] = as much as 20 gm; cited from earlier work
[8] = system: HL-60 cells; experiment: Respiratory burst (superoxide anion, ferricytochrome c reduction, PMA stimulated); type: cell-based, human; conditions: for increase in rate of superoxide generation compared to HL-60 control cells: FIG. 3
Protocol: Specific cells undergo an increase in oxygen uptake when presented with appropriate stimuli, such as invading microorganisms or phorbol ester. The cells utilize this oxygen to produce a series of free radicals that kill the invading microorganism. Production of free radicals occurs via an enzyme called NADPH oxidase. Free radical production is measured spectrophotometrically by a change in color of ferricytochrome c.
The ability of cells to produce superoxide anion was measured by the reduction of ferricytochrome c via a microtiter plate (Levy et al (1990)). Fifty microliters of cells (1×10^7 cells/ml) previously incubated with retinoic acid, ribose or glucose were plated in triplicate wells of a microtiter plate. Each well contained 10 μl of 1.5 mol/L ferricytochrome c substrate and 100 μl of DPBD containing 1 mmol/L glucose. Cells were stimulated to produce superoxide anion by addition of 10 μl of 1.6 μmol/L phorbol 12-myristate 13-acetate (PMA). A kinetic reading on dual wavelengths of 540-490 nM was taken using a Molecular Devices microtiter plate reader (UVMax, Menlo Park, Calif.). Change in absorbance was measured over ten minutes. In order to ensure that reduction of ferricytochrome was the result of superoxide anion, experimental samples were incubated with 10 μl of bovine erythrocyte superoxide dismutase (7500 units/ml). […] Respiratory burst was expressed as the change in optical density/10^6 cells.

[9] = system: thymus cells; experiment: PHA-stimulated thymus cell proliferation (tritiated thymidine); type: cell-based, mouse
Protocol: (§5) Mice are the species of choice for studies of the immune response because of the numerous nutritional and interventional studies that have been performed on mice. Details of its immune response are well studied and the inbred lines used eliminate any genetic differences. Spleens and thymus were removed from weanling Swiss ICR mice and cell suspensions prepared. The spleen and thymus cells were plated in a 96-well plate and various levels of ribose added to each well in triplicate. Phytohaemagglutinin (PHA), a T-cell stimulator, was added and the cells incubated for 48 hours. Tritiated Thymidine was then added, the cells harvested 24 hours later, and radioactivity incorporated was determined by liquid scintillation counting.

[10] = healthy males; U.S. Pat. No. 6,159,942; cited from earlier work
[11] = system: spleen cells; experiment: PHA-stimulated spleen cell proliferation (tritiated thymidine); type: cell-based, mouse
Protocol: as §5

[12] = system: weanling Swiss ICR mice; experiment: In vivo loading with ribose, planned immune response and pathogen challenge studies; parameters: species or system mouse; conditions: expected result
Excerpt: For the in vivo studies, weanling Swiss ICR mice (three weeks old) were fed a fully nutritious, casein-based diet (AIN 93G).
This pilate study will be followed by a broader study with ten animals per groups. Popliteal lymphoproliferation, delayed-type hypersensitivity (DTH) and thymic and splenic lymphocyte proliferation will be tested. To determine popliteal lymphoproliferation, the popliteal node will be excised and weighed after antigen injection into the hind-leg footpad. DTH can be assessed by measuring ear swelling after sensitization and stimulation with the prop antigen dinitrofluorobenzene. Thymic and splenic proliferation will be determined from cells isolated from the thymus and spleen and pulsed with tritiated thymidine. These four measures are all T-cell responses.
Another group of animals will be fed as above. […] T-cell numbers, proliferation and migration, B-cell numbers, NK cell numbers and migration, neutrophil numbers, migration and oxidative burst will be determined. […] Cells will be quantitated by flow cytometry, oxidative burst will be determined spectrophotometrically and proliferation by incorporation of tritiated thymidine. Cell migration will be determined by flow cytometry as the percentage of cells. In addition, the activity of myeloperoxidase, a degradative enzyme specific to neutrophils, can be measured in lung tissue to determine this cell's migration. […]

[13] = 10 mM ribose, cells differentiated with retinoic acid

## O=C[C@H](O)[C@H](O)[C@H](O)CO [D-Ribose]
[1]
  change in viability versus control: slight reductions in viability
[2]
  viability at 96 h: 86.3%
[3]
  change in ATP concentration versus HL-60 control: slightly increased
[4]; [13]
  increase in CD11b: threefold increase
  reduction in CD117: 30%
[4]; ribose added to RA
  expression of cell surface marker reactive with CD11b antibody: increased further
[4]; FIG. 2, ribose added to RA
  immature cell surface marker recognized by CD117 antibody: reduced
[5]
  effect on incorporation of tritiated thymidine / metabolic processes: deeply derange metabolic processes
[6]
  reduction in cell growth compared to control HL-60 cells: 30%
  Cell Growth (10^5 cells/ml): 6.68 +/− 1.29 10^5 cells/ml
  change in cell number over the 96-hour incubation period: nearly tripled in number
[7]
  tolerability: well tolerated
[8]
  increase in rate of superoxide generation compared to HL-60 control cells: no significant increase
[9]; low levels of ribose
  thymus cell proliferation: slight, but non-significant stimulation
[9]; ribose above 5 mM
  thymus cell proliferation: tended to inhibit proliferation
[10]
  energy level (skeletal muscle ATP, power output): enhances the energy level
[11]; low levels of ribose
  spleen cell proliferation: slight, but non-significant stimulation
[11]; ribose above 5 mM
  spleen cell proliferation: tended to inhibit proliferation
[12]
  immune response parameters after diet supplementation and pathogen challenge: benefit the immune response

## CC1=C(/C=C/C(C)=C/C=C/C(C)=C/C(=O)O)C(C)(C)CCC1 [RA, all-trans retinoic acid]
[1]
  change in viability versus control: slight reductions in viability
[2]
  viability at 96 h: 84.5%
[2]; Table 2, mean ± SD, n = 5
  viability at 1 μmol/L: 82.6 ± 3.3%
[4]; ribose added to RA
  expression of cell surface marker reactive with CD11b antibody: high level of expression
[4]; Table 2, immature cell marker, mean ± SD, n = 5
  CD117 (%): 33.4 ± 9.5^A %
[4]; Table 2, mature cell marker, mean ± SD, n = 5
  CD11b (%): 35.7 ± 7.5^B %
[6]
  reduction in cell growth compared to control HL-60 cells: 30%
  Cell Growth (10^5 cells/ml): 7.01 +/− 2.14 10^5 cells/ml
  change in cell number over the 96-hour incubation period: nearly tripled in number
[6]; Table 2, mean ± SD, n = 5
  Growth (cell/ml): 727000 ± 102000 cells/mL
[8]
  increase in rate of superoxide generation compared to HL-60 control cells: 5.5 fold
[8]; Table 2, mean ± SD, n = 5
  Respiratory Burst (% of RA control): 100^B % of RA control

## [2H]C(=O)C[C@H](O)[C@H](O)CO [deoxy-D-Ribose, reference compound]
[5]
  effect on incorporation of tritiated thymidine / metabolic processes: deeply derange metabolic processes
